# Source: publication PMC9410265, “Citrate Regulates the Saccharomyces cerevisiae Mitochondrial GDP/GTP Carrier (Ggc1p) by Triggering Unidirectional Transport of GTP” (Journal of Fungi, 2022)
# Positions count from the first letter of the chain named. Numbers in names are those of the source.
# T1: Ggc1p (yeast mitochondrial GDP/GTP carrier) (Saccharomyces cerevisiae, UniProt P38988)
# T1 construct: gene GGC1; E. coli BL21(DE3) inclusion bodies, sarkosyl-solubilized, reconstituted in liposomes; calculated 33,215 Da with initiator Met
# T1 sequence (P38988 1-300): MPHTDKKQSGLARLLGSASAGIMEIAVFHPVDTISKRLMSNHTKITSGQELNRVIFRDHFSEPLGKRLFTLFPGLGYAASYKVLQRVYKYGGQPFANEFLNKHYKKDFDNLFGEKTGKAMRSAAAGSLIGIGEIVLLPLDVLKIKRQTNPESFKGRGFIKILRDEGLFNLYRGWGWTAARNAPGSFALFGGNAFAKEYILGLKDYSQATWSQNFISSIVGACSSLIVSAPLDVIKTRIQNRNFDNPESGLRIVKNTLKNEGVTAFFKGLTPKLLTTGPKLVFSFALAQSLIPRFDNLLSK
# T2: Ggc1p (yeast mitochondrial GDP/GTP carrier) (Saccharomyces cerevisiae, UniProt P38988, R156A)
# T2 construct: gene GGC1; E. coli BL21(DE3) inclusion bodies, sarkosyl-solubilized, reconstituted in liposomes; calculated 33,215 Da with initiator Met
# T2 sequence (P38988 1-300 R156A): T1 sequence (P38988 1-300) with R156A
# T3: Ggc1p (yeast mitochondrial GDP/GTP carrier) (Saccharomyces cerevisiae, UniProt P38988, K154A)
# T3 construct: gene GGC1; E. coli BL21(DE3) inclusion bodies, sarkosyl-solubilized, reconstituted in liposomes; calculated 33,215 Da with initiator Met
# T3 sequence (P38988 1-300 K154A): T1 sequence (P38988 1-300) with K154A
# B1: Ggc1p (yeast mitochondrial GDP/GTP carrier) (Saccharomyces cerevisiae S288C) (protein)
# chain: T1 sequence (P38988 1-300)
# notes: E. coli BL21(DE3) inclusion bodies, sarkosyl-solubilized, reconstituted in liposomes; calculated 33,215 Da with initiator Met
# Key:
# [1] = target: T1, Ggc1p (yeast mitochondrial GDP/GTP carrier); test: inhibition of [[…]-3H]GTP uptake into proteoliposomes; type: biochemical; conditions: GTP/GTP exchange (5 mM internal GTP) and citrate-induced uptake (5 mM internal citrate); 1 μM [8-3H]GTP; pH 7.0, 25 °C
# [2] = target: T1, Ggc1p (yeast mitochondrial GDP/GTP carrier); test: as above; type: biochemical; conditions: citrate-induced GTP uptake (5 mM internal citrate); 1 μM [8-3H]GTP; pH 7.0, 25 °C
# [3] = target: T1, Ggc1p (yeast mitochondrial GDP/GTP carrier); test: [[…]-3H]GTP uptake into effector-loaded proteoliposomes; type: biochemical; conditions: activator of GTP uniport; 5 mM internal compound; 1 μM external [8-3H]GTP; pH 7.0, 25 °C
# [4] = target: T2, Ggc1p (yeast mitochondrial GDP/GTP carrier); test: radiolabelled GTP uptake into citrate-loaded proteoliposomes, […] s; type: biochemical; conditions: activator; 5 mM internal citrate; 1 μM external [8-3H]GTP; pH 7.0, 25 °C
# [5] = target: T1, Ggc1p (yeast mitochondrial GDP/GTP carrier); test: radiolabelled GTP uptake into proteoliposomes, activation by internal citrate; type: biochemical; conditions: activator (trans-activation of GTP uniport), not transported; allosteric, site distinct from GTP site; 10 μM external [8-3H]GTP; pH 7.0, 25 °C
# [6] = target: T3, Ggc1p (yeast mitochondrial GDP/GTP carrier); test: radiolabelled GTP uptake into citrate-loaded proteoliposomes, […] s; type: biochemical; conditions: activator; 5 mM internal citrate; 1 μM external [8-3H]GTP; pH 7.0, 25 °C
# purified protein = substrate: Nc1nc2c(ncn2[C@@H]2O[C@H](COP(=O)(O)OP(=O)(O)OP(=O)(O)O)[C@@H](O)[C@H]2O)c(=O)[nH]1; test: purified protein; type: biochemical, Saccharomyces cerevisiae; conditions: citrate-induced GTP uniport, internal citrate 0.15-0.6 mM, external 0.25-1 μM [8-3H]GTP, pH 7.0, 25 °C, labelled compound
molecule,measurement,setting,value
Cc1cc(C2(c3cc(C)c(O)c(Br)c3)OS(=O)(=O)c3ccccc32)cc(Br)c1O [bromocresol purple],% inhibition at 0.3 mM,[1],tannic acid and bromocresol purple (inhibitors of the mitochondrial glutamate carriers)
CO[C@H](C/C=C\C=C\CC/C=C/C[C@H](C)/C=C/C(=C\C(=O)O)CC(=O)O)/C(C)=C\C=C(/C)C(=O)O [bongkrekic acid],% inhibition at 0.1 mM,[2],"CIGU was partially inhibited by p-hydroxymercuribenzoate, carboxyatractyloside and bongkrekate"
O=C(O)C[C@H](C(=O)O)[C@@H](O)C(=O)O [isocitrate],[8-3H]GTP uptake into effector-loaded proteoliposomes,[3],"GTP uptake was also observed with proteoliposomes containing citrate, isocitrate, cis-aconitate"
O=C(O)CC(O)(CC(=O)O)C(=O)O [citrate],% of wild-type uptake,[4],CIGU in K154A and R156A mutants were markedly decreased with respect to that of wild-type
same,EC50,[5],510 µM
same,% of wild-type uptake,[6],CIGU in K154A and R156A mutants were markedly decreased with respect to that of wild-type
O=C(O)/C=C(/CC(=O)O)C(=O)O [cis-aconitate],[8-3H]GTP uptake into effector-loaded proteoliposomes,[3],"GTP uptake was also observed with proteoliposomes containing citrate, isocitrate, cis-aconitate"
B1,Km,purified protein,0.72 µM
